Source: ChEMBL document CHEMBL5291721, “A preclinical secondary pharmacology resource illuminates target-adverse drug reaction associations of marketed drugs” (Nat Commun, 2023)

Key:
[1] = target: T1, Alpha-2A adrenergic receptor (Homo sapiens, UniProt P08913)
T1 sequence (P08913 whole entry): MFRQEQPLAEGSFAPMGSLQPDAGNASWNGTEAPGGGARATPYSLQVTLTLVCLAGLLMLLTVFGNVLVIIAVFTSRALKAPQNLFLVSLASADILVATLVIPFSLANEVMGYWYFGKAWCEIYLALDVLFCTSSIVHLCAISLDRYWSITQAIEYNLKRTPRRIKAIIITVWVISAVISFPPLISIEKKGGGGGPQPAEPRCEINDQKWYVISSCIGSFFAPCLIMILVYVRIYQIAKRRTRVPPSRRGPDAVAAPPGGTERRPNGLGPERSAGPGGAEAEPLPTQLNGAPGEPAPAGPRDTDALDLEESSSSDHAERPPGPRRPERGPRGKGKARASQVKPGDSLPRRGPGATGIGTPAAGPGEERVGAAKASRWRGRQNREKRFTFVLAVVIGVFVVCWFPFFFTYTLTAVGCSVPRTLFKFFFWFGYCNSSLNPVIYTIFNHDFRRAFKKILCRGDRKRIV

[2] = target: T2, Corticotropin-releasing factor receptor 1 (Homo sapiens, UniProt P34998)
T2 sequence (P34998 whole entry): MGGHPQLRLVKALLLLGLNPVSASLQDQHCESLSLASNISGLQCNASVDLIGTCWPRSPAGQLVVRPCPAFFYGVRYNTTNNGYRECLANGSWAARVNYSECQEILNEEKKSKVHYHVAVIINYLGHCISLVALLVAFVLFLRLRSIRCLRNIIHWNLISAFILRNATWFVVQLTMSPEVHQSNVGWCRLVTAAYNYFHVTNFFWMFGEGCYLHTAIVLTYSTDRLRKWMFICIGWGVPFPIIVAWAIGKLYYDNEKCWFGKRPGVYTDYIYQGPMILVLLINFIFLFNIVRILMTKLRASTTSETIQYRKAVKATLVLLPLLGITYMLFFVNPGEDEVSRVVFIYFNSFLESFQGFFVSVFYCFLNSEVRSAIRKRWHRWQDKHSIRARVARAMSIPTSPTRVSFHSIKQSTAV

B1 bradykinin receptor = target: T3, B1 bradykinin receptor (Homo sapiens, UniProt P46663)
T3 sequence (P46663 whole entry): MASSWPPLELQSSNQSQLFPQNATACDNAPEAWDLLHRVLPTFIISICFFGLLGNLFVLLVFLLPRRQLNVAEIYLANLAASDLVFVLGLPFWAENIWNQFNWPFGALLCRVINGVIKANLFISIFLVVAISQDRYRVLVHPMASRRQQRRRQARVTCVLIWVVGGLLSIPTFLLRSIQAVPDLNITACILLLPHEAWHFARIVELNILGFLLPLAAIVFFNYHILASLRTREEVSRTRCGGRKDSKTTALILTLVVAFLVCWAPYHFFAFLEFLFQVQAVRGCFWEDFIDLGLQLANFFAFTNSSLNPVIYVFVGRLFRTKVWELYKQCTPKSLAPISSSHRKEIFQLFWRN

[3] = target: T4, Corticotropin-releasing factor receptor 2 (Homo sapiens, UniProt Q13324)
T4 sequence (Q13324 whole entry): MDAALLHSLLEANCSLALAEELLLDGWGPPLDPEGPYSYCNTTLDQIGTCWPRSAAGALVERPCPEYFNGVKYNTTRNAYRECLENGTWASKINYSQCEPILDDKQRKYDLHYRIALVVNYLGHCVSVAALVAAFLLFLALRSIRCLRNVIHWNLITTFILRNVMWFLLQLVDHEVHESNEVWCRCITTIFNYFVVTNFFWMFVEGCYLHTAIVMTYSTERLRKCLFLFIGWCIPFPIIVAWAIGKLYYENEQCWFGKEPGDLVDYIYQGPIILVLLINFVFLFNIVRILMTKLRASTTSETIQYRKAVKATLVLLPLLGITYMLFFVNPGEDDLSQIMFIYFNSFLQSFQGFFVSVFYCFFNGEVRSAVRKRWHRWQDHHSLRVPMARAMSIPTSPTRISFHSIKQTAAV

Glucocorticoid receptor [4] = target: T5, Glucocorticoid receptor (Homo sapiens, UniProt P04150); type: functional
T5 sequence (P04150 whole entry): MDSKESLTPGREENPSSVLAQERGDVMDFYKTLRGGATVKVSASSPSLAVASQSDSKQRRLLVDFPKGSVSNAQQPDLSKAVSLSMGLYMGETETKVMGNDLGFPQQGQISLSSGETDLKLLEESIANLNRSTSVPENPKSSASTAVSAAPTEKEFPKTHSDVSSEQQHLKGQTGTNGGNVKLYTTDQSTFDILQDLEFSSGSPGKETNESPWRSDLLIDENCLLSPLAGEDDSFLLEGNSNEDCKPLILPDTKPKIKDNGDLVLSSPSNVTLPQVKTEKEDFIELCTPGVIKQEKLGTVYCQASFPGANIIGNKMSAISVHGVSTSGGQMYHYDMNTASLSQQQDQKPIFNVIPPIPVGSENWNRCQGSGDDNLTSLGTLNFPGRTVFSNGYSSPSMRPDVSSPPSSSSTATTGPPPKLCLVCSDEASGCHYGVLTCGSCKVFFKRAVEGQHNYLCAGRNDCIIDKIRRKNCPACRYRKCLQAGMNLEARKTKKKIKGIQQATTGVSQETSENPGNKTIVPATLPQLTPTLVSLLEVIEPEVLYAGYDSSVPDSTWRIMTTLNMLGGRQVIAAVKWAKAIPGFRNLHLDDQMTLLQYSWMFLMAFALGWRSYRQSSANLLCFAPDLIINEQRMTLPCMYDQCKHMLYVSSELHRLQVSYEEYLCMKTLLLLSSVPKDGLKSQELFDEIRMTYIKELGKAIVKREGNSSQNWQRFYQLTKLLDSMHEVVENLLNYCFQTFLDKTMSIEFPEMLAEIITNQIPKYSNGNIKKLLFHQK

Glucocorticoid receptor [5] = target: T5, Glucocorticoid receptor; type: functional; remark: listed apart in the source
Estrogen receptor beta = Estrogen receptor beta (Homo sapiens, UniProt Q92731)
[6] = target: Gamma-aminobutyric acid receptor subunit alpha-1/alpha-2/beta-2/gamma-2 (Homo sapiens, UniProt P14867+P18507+P47869+P47870); type: functional, cell-based
[7] = target: Gamma-aminobutyric acid receptor subunit alpha-1 (Rattus norvegicus, UniProt P62813)
Also: assay procedure not described here.

Sequence of Gamma-aminobutyric acid receptor subunit alpha-1/alpha-2/beta-2/gamma-2 (P14867 whole entry): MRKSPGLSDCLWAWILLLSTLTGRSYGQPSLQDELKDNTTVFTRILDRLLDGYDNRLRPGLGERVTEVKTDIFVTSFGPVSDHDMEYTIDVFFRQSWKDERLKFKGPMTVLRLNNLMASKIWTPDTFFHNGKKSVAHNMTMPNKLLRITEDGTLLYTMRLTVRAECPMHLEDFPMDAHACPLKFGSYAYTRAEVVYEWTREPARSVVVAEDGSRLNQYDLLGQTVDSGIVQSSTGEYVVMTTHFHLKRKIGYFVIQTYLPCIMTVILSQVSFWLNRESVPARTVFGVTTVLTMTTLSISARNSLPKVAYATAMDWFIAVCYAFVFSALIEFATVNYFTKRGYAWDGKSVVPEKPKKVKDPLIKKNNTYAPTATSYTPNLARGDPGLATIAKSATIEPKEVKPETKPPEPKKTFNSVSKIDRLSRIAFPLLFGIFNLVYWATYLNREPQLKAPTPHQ
Sequence of Gamma-aminobutyric acid receptor subunit alpha-1/alpha-2/beta-2/gamma-2 (P47870 whole entry): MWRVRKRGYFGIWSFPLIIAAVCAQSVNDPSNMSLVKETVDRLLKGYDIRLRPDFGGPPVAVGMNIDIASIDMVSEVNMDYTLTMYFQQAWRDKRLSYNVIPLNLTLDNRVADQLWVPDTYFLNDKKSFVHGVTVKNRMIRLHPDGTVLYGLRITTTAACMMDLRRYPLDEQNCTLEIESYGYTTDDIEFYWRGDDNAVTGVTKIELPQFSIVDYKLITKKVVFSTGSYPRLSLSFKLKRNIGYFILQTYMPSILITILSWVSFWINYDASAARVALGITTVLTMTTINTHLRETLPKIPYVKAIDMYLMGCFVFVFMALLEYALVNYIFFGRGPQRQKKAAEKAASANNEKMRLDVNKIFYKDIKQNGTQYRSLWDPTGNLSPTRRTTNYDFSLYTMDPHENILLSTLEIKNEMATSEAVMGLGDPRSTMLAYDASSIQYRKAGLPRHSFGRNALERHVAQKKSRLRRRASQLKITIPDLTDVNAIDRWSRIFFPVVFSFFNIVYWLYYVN
Sequence of Gamma-aminobutyric acid receptor subunit alpha-1/alpha-2/beta-2/gamma-2 (P18507 whole entry): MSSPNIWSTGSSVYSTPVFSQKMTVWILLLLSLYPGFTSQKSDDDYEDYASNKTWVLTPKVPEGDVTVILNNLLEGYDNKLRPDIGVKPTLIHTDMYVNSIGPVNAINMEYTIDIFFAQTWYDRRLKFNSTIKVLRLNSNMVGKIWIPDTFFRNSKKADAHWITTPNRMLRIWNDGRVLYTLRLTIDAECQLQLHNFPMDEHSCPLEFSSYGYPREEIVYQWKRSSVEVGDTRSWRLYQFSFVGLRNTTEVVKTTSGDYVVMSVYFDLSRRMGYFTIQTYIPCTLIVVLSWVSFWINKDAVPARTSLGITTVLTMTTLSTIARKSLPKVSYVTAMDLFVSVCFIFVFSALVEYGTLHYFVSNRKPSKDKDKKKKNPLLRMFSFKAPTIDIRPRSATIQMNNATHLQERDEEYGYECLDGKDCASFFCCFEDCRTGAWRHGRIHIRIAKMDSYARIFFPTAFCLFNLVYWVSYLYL
Sequence of Gamma-aminobutyric acid receptor subunit alpha-1/alpha-2/beta-2/gamma-2 (P47869 whole entry): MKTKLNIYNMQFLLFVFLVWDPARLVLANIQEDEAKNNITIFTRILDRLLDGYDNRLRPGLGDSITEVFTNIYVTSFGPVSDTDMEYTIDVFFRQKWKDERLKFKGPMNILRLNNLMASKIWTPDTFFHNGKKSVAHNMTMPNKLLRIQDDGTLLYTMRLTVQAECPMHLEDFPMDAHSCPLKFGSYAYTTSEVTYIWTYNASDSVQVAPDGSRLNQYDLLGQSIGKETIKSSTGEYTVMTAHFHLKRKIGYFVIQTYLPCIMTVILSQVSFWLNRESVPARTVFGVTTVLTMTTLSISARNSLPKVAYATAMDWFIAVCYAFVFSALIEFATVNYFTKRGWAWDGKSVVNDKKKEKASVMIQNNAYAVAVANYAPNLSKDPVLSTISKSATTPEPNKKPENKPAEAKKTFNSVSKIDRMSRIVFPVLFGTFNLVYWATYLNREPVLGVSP
Sequence of Estrogen receptor beta (Q92731 whole entry): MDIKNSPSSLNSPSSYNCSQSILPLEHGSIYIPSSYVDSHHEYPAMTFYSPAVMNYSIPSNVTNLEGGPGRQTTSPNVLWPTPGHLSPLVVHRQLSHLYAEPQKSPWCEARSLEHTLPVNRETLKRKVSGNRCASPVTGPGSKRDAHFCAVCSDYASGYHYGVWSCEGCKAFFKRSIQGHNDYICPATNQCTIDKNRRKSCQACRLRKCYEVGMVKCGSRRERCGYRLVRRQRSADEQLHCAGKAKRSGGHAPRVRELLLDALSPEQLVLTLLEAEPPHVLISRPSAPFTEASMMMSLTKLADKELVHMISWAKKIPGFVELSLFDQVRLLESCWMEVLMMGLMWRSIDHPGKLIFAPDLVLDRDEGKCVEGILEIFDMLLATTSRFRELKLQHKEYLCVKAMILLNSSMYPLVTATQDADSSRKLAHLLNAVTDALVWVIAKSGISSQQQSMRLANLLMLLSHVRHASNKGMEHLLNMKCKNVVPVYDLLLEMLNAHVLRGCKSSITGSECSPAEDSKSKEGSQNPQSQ
Sequence of Gamma-aminobutyric acid receptor subunit alpha-1 (P62813 whole entry): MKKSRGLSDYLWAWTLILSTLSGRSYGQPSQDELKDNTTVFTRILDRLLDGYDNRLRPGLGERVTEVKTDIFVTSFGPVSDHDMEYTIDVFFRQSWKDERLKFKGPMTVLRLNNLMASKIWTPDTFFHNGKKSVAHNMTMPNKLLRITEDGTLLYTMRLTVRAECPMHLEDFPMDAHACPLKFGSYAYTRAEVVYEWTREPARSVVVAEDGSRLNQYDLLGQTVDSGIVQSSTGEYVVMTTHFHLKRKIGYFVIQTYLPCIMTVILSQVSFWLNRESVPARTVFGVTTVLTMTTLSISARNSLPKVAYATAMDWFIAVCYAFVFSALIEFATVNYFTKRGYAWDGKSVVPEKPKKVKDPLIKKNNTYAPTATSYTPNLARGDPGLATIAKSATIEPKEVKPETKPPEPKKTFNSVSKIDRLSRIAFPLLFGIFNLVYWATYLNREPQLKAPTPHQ

Row | Structure (SMILES) | AC50 [1] [µM] | AC50 [2] [µM] | AC50 (B1 bradykinin receptor) [µM] | AC50 [3] [µM] | AC50 (Glucocorticoid receptor [4]) [µM] | AC50 (Glucocorticoid receptor [5]) [µM] | AC50 (Estrogen receptor beta) [µM] | AC50 [6] [µM] | AC50 [7] [µM]
1 | NC(N)=Nc1nc(CSCCC(N)=NS(N)(=O)=O)cs1 [FAMOTIDINE] | > 10 | > 30 | > 30 | > 30 | – | – | – | – | –
2 | COc1ccc2c(c1)C(=O)N(CCc1ccc(S(=O)(=O)NC(=O)NC3CCCCC3)cc1)C(=O)C2(C)C [GLIQUIDONE] | – | – | – | – | 8.9 | > 30 | – | – | –
3 | NS(=O)(=O)c1cc2c(cc1Cl)NCNS2(=O)=O [HYDROCHLOROTHIAZIDE] | > 10 | > 30 | > 30 | > 30 | – | – | > 30 | – | –
4 | CC(C)Cc1ccc(CC(=O)O)cc1 [IBUFENAC] | – | – | – | – | > 30 | > 30 | – | > 30 | –
5 | CC(C)NNC(=O)c1ccncc1 [IPRONIAZID] | – | – | – | – | > 30 | > 30 | – | – | –
6 | CCN(CC)CCNC(=O)c1cc(Cl)c(N)cc1OC [METOCLOPRAMIDE] | 7.32 | > 30 | > 30 | > 30 | – | – | > 30 | – | –
7 | NC(=O)c1ncn([C@@H]2O[C@H](CO)[C@@H](O)[C@H]2O)c1O [MIZORIBINE] | – | – | – | – | – | – | – | > 30 | –
8 | CCc1nn(CCCN2CCN(c3cccc(Cl)c3)CC2)c(=O)n1CCOc1ccccc1 [NEFAZODONE] | – | > 30 | > 30 | > 30 | – | – | > 30 | – | –
9 | OCCN1CCN(CCCN2c3ccccc3C=Cc3ccccc32)CC1 [OPIPRAMOL] | – | – | – | – | – | – | – | > 30 | > 30
10 | CCc1ccc(CCOc2ccc(CC3SC(=O)NC3=O)cc2)nc1 (centres undefined) [PIOGLITAZONE] | 7.05 | > 30 | > 30 | > 30 | – | – | > 30 | – | > 30
11 | CC(C(=O)O)c1ccc(N2CC=CC2)c(Cl)c1 (centres undefined) [PIRPROFEN] | > 10 | > 30 | > 30 | > 30 | – | – | > 30 | – | –
12 | CC[C@H](C)C(=O)O[C@H]1C[C@H](O)C=C2C=C[C@H](C)[C@H](CC[C@@H](O)C[C@@H](O)CC(=O)O)[C@H]21 [PRAVASTATIN] | – | – | – | – | > 30 | > 30 | – | – | –
13 | NC(=O)c1cnccn1 [PYRAZINAMIDE] | > 10 | > 30 | > 30 | > 30 | – | – | > 30 | – | –
14 | Cc1ccc(C(=O)c2cc(O)c(O)c([N+](=O)[O-])c2)cc1 [TOLCAPONE] | – | – | – | – | > 30 | 14 | – | – | –
15 | OCc1cc([C@@H](O)CNCCCCCCOCCOCc2c(Cl)cccc2Cl)ccc1O [VILANTEROL] | – | – | – | – | > 30 | > 30 | – | > 30 | –
16 | O=C(CCCCCCC(=O)Nc1ccccc1)NO [VORINOSTAT] | > 10 | – | > 10 | – | – | – | – | > 30 | –
